Assay results taken from patent US6461859B1, “Enzymatic oxidation process for desulfurization of fossil fuels” (Instituto Mexicano del Petroleo, priority 1999, dated 2002).

How the values were obtained:
[1] = target: T1, poly(ethylene)glycol-modified cytochrome c (PEG-Cyt) (Equus caballus, UniProt P00004); experiment: Oxidation of low-sulfur diesel oil enriched with dibenzothiophene (gas chromatogram); type: biochemical; conditions: desulfurized diesel oil enriched with 10 g/l DBT, PEG-Cyt and hydrogen peroxide, GC FID/FPD
T1 construct: made in house
T1 sequence (P00004 2-105 limits assumed): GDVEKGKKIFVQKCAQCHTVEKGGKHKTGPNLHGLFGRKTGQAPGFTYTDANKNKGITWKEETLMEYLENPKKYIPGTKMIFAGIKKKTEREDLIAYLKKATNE
Excerpt: Desulfurized diesel oil (<0.05% of sulfur) is enriched with 10 g/l of DBT and treat with poly(ethylene)glycol-modified cytochrome c (PEG-Cyt) and hydrogen peroxide. […] DBT sulfoxide is an unstable compound which may be oxidized to form DBT sulfone. Cytochrome c is a biocatalyst able to oxidize thiophenes and organosulfides [Vazquez-Duhalt et al Enzyme Microb. Technol. 15 (1993) 494] and has several advantages when compared with other hemoenzymes. […] Technol. 15 (1993) 494; Vazquez-Duhalt et al Enzyme Microb. Technol. 15 (1993) 936.]. In addition, this biocatalyst can be modified by site-directed mutagenesis [E. Torres et al. Enzyme Microb. Technol. 17 (1995) 1014.] and by chemical modification [Tinoco and Vazquez-Duhalt. Enzyme Microb. Technol. 22 (1998) 8.] to improve both its catalytic activity and range of substrates. PEG-modified enzymes are soluble in organic solvents and their activity in organic solvents is increased because of the reduction of mass transfer limitations in the system [Vazquez-Duhalt et al. Enzyme Microb. Technol. 14 (1992) 837].

[2] = Biocatalytic oxidation of primary diesel fuel followed by distillation; conditions: chloroperoxidase treatment of primary diesel oil followed by distillation
Method: After biocatalytic oxidation of the fossil fuel a second process of separation of oxidized organosulfur compounds is envisaged. Because the boiling points of sulfur compounds are incersed after biocatlytic oxidation to sulfoxides, it is possible to remove them by a single distillation. Oxidized sulfur compounds can be removed by decreasing the final distillation point. When primary diesel fuel containing 1.6% sulfur is distilled in order to obtain a 100% distillation at a temperature 50° C. lower than the original fraction, it produces a diesel fuel containing 1.27% of sulfur and 83% of the original hydrocarbons. […] Thus, a biocatalytic treatment of primary diesel oil with chloroperoxidase from Caldariomyces fumago, followed by a distillation is able to reduce the sulfur content by 80%.

Molecule: c1ccc2c(c1)sc1ccccc12 [Dibenzothiophene]
- biocatalytic transformation of DBT [1]: transformed to DBT sulfoxide

B1: chloroperoxidase: chloroperoxidase (EC 1.11.1.10) from Caldariomyces fumago, hemoprotein biocatalyst (protein, UniProt P04963 21-319, looked up)
Chloroperoxidase: QEPGSGIGYPYDNNTLPYVAPGPTDSRAPCPALNALANHGYIPHDGRAISRETLQNAFLNHMGIANSVIELALTNAFVVCEYVTGSDCGDSLVNLTLLAEPHAFEHDHSFSRKDYKQGVANSNDFIDNRNFDAETFQTSLDVVAGKTHFDYADMNEIRLQRESLSNELDFPGWFTESKPIQNVESGFIFALVSDFNLPDNDENPLVRIDWWKYWFTNESFPYHLGWHPPSPAREIEFVTSASSAVLAASVTSTPSSLPSGAIGPGAEAVPLSFASTMTPFLLATNAPYYAQDPTLGPND
- reduction of sulfur content [2]: 80%
